Columns and labels:
[1] = Isoxazoline compounds in dog hair; type: in vivo; details: hair collected on Day 110 from 5 areas, PVC collars, FIG. 6
From the text: Hair samples from each dog were collected on Day 110 from 5 different areas: (1) central thorax, (2) lower back/caudal region, (3) right thorax, (4) left thorax, and […] top of neck/base of skull above collar site. Suitable bioanalytical methods were used for analysis of the three isoxazoline compounds in dog hair. […] Results for the other two isoxazoline compounds Ia and (S)-Ia are very similar.

[2] = Plasma drug concentrations in dogs wearing PVC based isoxazoline collars; type: in vivo, dog; details: 11% active, FIG. 5
Protocol: PK data: Blood samples from all the dogs were taken periodically and drug concentrations in the plasma were analyzed (depicted in FIG. 5). […] In other words, these compounds are likely acting by a systemic mechanism, even though they are applied in a topical collar dosage form. These PK data appear also to correlate with the flea and tick efficacy data in Table 6 and 7 (e.g., compound (S)-Ia is the best, (S)-Id is the second, and Ia the third).

Ctenocephalides felis = test: In-vitro flea exposure effectiveness (contact with collar strips or treated filter papers); details: filter paper 21 cm^2 loaded with 500 μL of 10 mg/mL in acetone, 24 (±1) hours; for Geometric Mean No. Live Fleas: 3 vials; for Percentage Reduction Live Fleas: versus acetone only control; for Vial 1 # Live Fleas / Vial 2 # Live Fleas / Vial 3 # Live Fleas: approximately 20 fleas
Protocol: The in-vitro susceptibility of Ctenocephalides felis exposed to treated filter papers and to external device compositions (antiparasitic collar) containing isoxazoline active agents (S)-Ia, (S)-Id and (Ia) was determined, wherein the collars comprise a polyvinyl chloride (PVC) matrix or a polybutylene succinate (PBS) matrix.
To determine the in-vitro susceptibility of Ctenocephalides felis exposed to treated filter papers or to the collars compositions comprising the isoxazoline active agent, approximately 20 fleas were transferred to vials containing either the collars or filter papers in accordance with the test groups outlined in Table 3. On Day 0, approximately 20 fleas were placed in 27×55 mm, 5 dram glass vials containing the collars comprising the active agent as outlined in Table 3 or in 60 mm×40 mm glass vials containing treated filter papers. The filter papers tested in groups 9-12 were loaded with 500 μL of a 10 mg/mL solution containing the active agent dissolved in acetone. […] Test vials were placed in an environmental chamber at approximately 28° C. and approximately 80% RH.
The number of dead fleas in each vial were counted on Day 1 at 24 (±1) hours after initial exposure. Fleas were counted as dead if they were not able to maintain an upright posture.

| Compound | Level of the drug in dog hair, top of the neck (collar site) compared with other areas [1] | PK data, order of the compounds (correlating with flea and tick efficacy) [2] | Geometric Mean No. Live Fleas (Ctenocephalides felis) | Percentage Reduction Live Fleas (Ctenocephalides felis) [%] | Vial 1 # Live Fleas (Ctenocephalides felis) | Vial 2 # Live Fleas (Ctenocephalides felis) | Vial 3 # Live Fleas (Ctenocephalides felis) | Isoxazoline compound levels in hair throughout bodies of the dogs [1] |
| --- | --- | --- | --- | --- | --- | --- | --- | --- |
| O=C(CNC(=O)c1ccc(C2=NOC(c3cc(Cl)cc(C(F)(F)F)c3)(C(F)(F)F)C2)c2ccccc12)NCC(F)(F)F (centres unmarked) [(Ia), 4-[5-[3-chloro-5-(trifluoromethyl)phenyl]-4,5-dihydro-5-(trifluoromethyl)-3-isoxazolyl]-N-[2-oxo-2-[(2,2,2-trifluoroethyl)amino]ethyl]-1-naphthalanecarboxamide] | very similar | the third | 19.6 | 3.3 | 19 | 21 | 19 | – |
| O=C(CNC(=O)c1ccc(C2=NO[C@@](c3cc(Cl)cc(C(F)(F)F)c3)(C(F)(F)F)C2)c2ccccc12)NCC(F)(F)F [(S)-Ia] | very similar | the best | 19.0 | 6.5 | 19 | 20 | 18 | – |
| O=C(CNC(=O)c1ccc(C2=NO[C@@](c3cc(Cl)c(F)c(C(F)(F)F)c3)(C(F)(F)F)C2)c2ccccc12)NCC(F)(F)F [(S)-Id] | highest level of the drug | the second | – | – | – | – | – | detectable |
